Reference: ChEMBL document CHEMBL1201861, “Genomics of Drug Sensitity in Cancer screening data, Wellcome Trust Sanger Institute”
pIC50: −log10 of the molar value.

Tests used:
Experiment in all cases: cells
COLO-829 = type: functional, cell-based, Homo sapiens; details: Homo sapiens, COLO-829
Description: SANGER: Inhibition of human COLO-829 cell growth in a cell viability assay.

D-263MG = type: functional, cell-based, Homo sapiens; details: Homo sapiens, D-263MG
Description: SANGER: Inhibition of human D-263MG cell growth in a cell viability assay.

DU-4475 = type: functional, cell-based, Homo sapiens; details: Homo sapiens, DU-4475
Description: SANGER: Inhibition of human DU-4475 cell growth in a cell viability assay.

ES5 = type: functional, cell-based, Homo sapiens; details: Homo sapiens, ES5;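 also: growth inhibition of human ES5 cells, read out by a cell viability assay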
Description: SANGER: Inhibition of human ES5 cell growth in a cell viability assay.

ES6 = type: functional, cell-based; details: Homo sapiens;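 also: growth inhibition of human ES6 cells, read out with a cell viability assay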
Description: SANGER: Inhibition of human ES6 cell growth in a cell viability assay.

ES7 = type: functional, cell-based, Homo sapiens; details: Homo sapiens, ES7;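 also: growth inhibition of cultured human ES7 cells, read out as cell viability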
Description: SANGER: Inhibition of human ES7 cell growth in a cell viability assay.

EW-3 = type: functional, cell-based, Homo sapiens; details: Homo sapiens, EW-3;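 also: cell viability assay read-out, IC50 reflects inhibition of growth of the EW-3 cells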
Description: SANGER: Inhibition of human EW-3 cell growth in a cell viability assay.

GOTO = type: functional, cell-based, Homo sapiens; details: Homo sapiens, GOTO;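 also: growth inhibition of GOTO cells, read out by a cell viability assay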
Description: SANGER: Inhibition of human GOTO cell growth in a cell viability assay.

HCC2218 = type: functional, cell-based, Homo sapiens; details: Homo sapiens, HCC2218;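 also: cell viability assay read-out, with IC50 given as the concentration that inhibits growth of the cell line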
Description: SANGER: Inhibition of human HCC2218 cell growth in a cell viability assay.

HEL = type: functional, cell-based, Homo sapiens; details: Homo sapiens, HEL;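 also: growth inhibition of HEL cells, read out with a cell viability assay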
Description: SANGER: Inhibition of human HEL cell growth in a cell viability assay.

IST-MES1 = type: functional, cell-based, Homo sapiens; details: Homo sapiens, IST-MES1;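 also: growth inhibition of IST-MES1 cells, measured with a cell viability assay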
Description: SANGER: Inhibition of human IST-MES1 cell growth in a cell viability assay.

K562 = type: functional, cell-based, Homo sapiens; details: Homo sapiens, K562
Description: SANGER: Inhibition of human K-562 cell growth in a cell viability assay.

KS-1 = type: functional, cell-based; details: Homo sapiens;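 also: growth inhibition of KS-1 cells, read out with a cell viability assay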
Description: SANGER: Inhibition of human KS-1 cell growth in a cell viability assay.

L-363 = type: functional, cell-based, Homo sapiens; details: Homo sapiens, L-363
Description: SANGER: Inhibition of human L-363 cell growth in a cell viability assay.

L-428 = type: functional, cell-based, Homo sapiens; details: Homo sapiens, L-428
Description: SANGER: Inhibition of human L-428 cell growth in a cell viability assay.

LS-1034 = type: functional, cell-based, Homo sapiens; details: Homo sapiens, LS-1034
Description: SANGER: Inhibition of human LS-1034 cell growth in a cell viability assay.

LU-139 = type: functional, cell-based, Homo sapiens; details: Homo sapiens, LU-139
Description: SANGER: Inhibition of human LU-139 cell growth in a cell viability assay.

MFM-223 = type: functional, cell-based, Homo sapiens; details: Homo sapiens, MFM-223
Description: SANGER: Inhibition of human MFM-223 cell growth in a cell viability assay.

MOLT-4 = type: functional, cell-based, Homo sapiens; details: Homo sapiens, MOLT-4;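 also: growth inhibition of MOLT-4 cells, determined with a cell viability readout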
Description: SANGER: Inhibition of human MOLT-4 cell growth in a cell viability assay.

MPP-89 = type: functional, cell-based, Homo sapiens; details: Homo sapiens, MPP-89;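 also: growth inhibition of human MPP-89 cells, read out with a cell viability assay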
Description: SANGER: Inhibition of human MPP-89 cell growth in a cell viability assay.

MV4-11 = type: functional, cell-based, Homo sapiens, MV-4-11; details: Homo sapiens, MV4-11;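 also: cell viability readout measuring growth inhibition of human MV-4-11 cells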
Description: SANGER: Inhibition of human MV-4-11 cell growth in a cell viability assay.

Mo = type: functional, cell-based, Homo sapiens; details: Homo sapiens, Mo
Description: SANGER: Inhibition of human Mo-T cell growth in a cell viability assay.

NB10 = type: functional, cell-based, Homo sapiens; details: Homo sapiens, NB10;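 also: growth inhibition of NB10 cells, read out by a cell viability assay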
Description: SANGER: Inhibition of human NB10 cell growth in a cell viability assay.

NB13 = type: functional, cell-based, Homo sapiens; details: Homo sapiens, NB13;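 also: cell viability readout measuring growth inhibition of human NB13 cells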
Description: SANGER: Inhibition of human NB13 cell growth in a cell viability assay.

NB69 = type: functional, cell-based, Homo sapiens; details: Homo sapiens, NB69;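 also: growth inhibition of NB69 cells, determined by a cell viability assay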
Description: SANGER: Inhibition of human NB69 cell growth in a cell viability assay.

NCI-H1304 = type: functional, cell-based, Homo sapiens; details: Homo sapiens, NCI-H1304;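 also: growth inhibition of the cancer cell line, measured in a cell viability assay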
Description: SANGER: Inhibition of human NCI-H1304 cell growth in a cell viability assay.

NCI-H1648 = type: functional, cell-based, Homo sapiens; details: Homo sapiens, NCI-H1648;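 also: cell viability assay measuring inhibition of NCI-H1648 cell growth, from the Sanger screening data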
Description: SANGER: Inhibition of human NCI-H1648 cell growth in a cell viability assay.

NCI-H1770 = type: functional, cell-based, Homo sapiens; details: Homo sapiens, NCI-H1770;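 also: growth inhibition of NCI-H1770 cells determined with a viability readout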
Description: SANGER: Inhibition of human NCI-H1770 cell growth in a cell viability assay.

NCI-H1838 = type: functional, cell-based, Homo sapiens; details: Homo sapiens, NCI-H1838;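 also: growth inhibition of NCI-H1838 cells, determined with a cell viability readout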
Description: SANGER: Inhibition of human NCI-H1838 cell growth in a cell viability assay.

NCI-H720 = type: functional, cell-based, Homo sapiens; details: Homo sapiens, NCI-H720;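 also: growth inhibition of human NCI-H720 cells determined by a cell viability assay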
Description: SANGER: Inhibition of human NCI-H720 cell growth in a cell viability assay.

NH-12 = type: functional, cell-based, Homo sapiens; details: Homo sapiens, NH-12;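 also: growth inhibition of NH-12 cells, read out with a cell viability assay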
Description: SANGER: Inhibition of human NH-12 cell growth in a cell viability assay.

NOS-1 = type: functional, cell-based, Homo sapiens; details: Homo sapiens, NOS-1;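 also: growth inhibition of the human NOS-1 cell line, read out with a cell viability assay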
Description: SANGER: Inhibition of human NOS-1 cell growth in a cell viability assay.

OS-RC-2 = type: functional, cell-based, Homo sapiens; details: Homo sapiens, OS-RC-2;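 also: growth inhibition of human OS-RC-2 cells, measured by a cell viability assay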
Description: SANGER: Inhibition of human OS-RC-2 cell growth in a cell viability assay.

SF-126 = type: functional, cell-based, Homo sapiens; details: Homo sapiens, SF-126;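 also: growth inhibition of human SF126 cells, read out with a cell viability assay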
Description: SANGER: Inhibition of human SF126 cell growth in a cell viability assay.

SF-539 = type: functional, cell-based, Homo sapiens; details: Homo sapiens, SF-539;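 also: Read-out is a cell viability assay, with IC50 reflecting inhibition of cell growth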
Description: SANGER: Inhibition of human SF539 cell growth in a cell viability assay.

SK-LMS-1 = type: functional, cell-based, Homo sapiens; details: Homo sapiens, SK-LMS-1;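 also: growth inhibition of human SK-LMS-1 cells, read out with a cell viability assay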
Description: SANGER: Inhibition of human SK-LMS-1 cell growth in a cell viability assay.

SK-MEL-2 = type: functional, cell-based, Homo sapiens; details: Homo sapiens, SK-MEL-2;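 also: growth inhibition of human SK-MEL-2 cells measured with a cell viability assay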
Description: SANGER: Inhibition of human SK-MEL-2 cell growth in a cell viability assay.

SK-NEP-1 = type: functional, cell-based, Homo sapiens; details: Homo sapiens, SK-NEP-1;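 also: growth inhibition of human SK-NEP-1 cells, read out by a cell viability assay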
Description: SANGER: Inhibition of human SK-NEP-1 cell growth in a cell viability assay.

SK-PN-DW = type: functional, cell-based, Homo sapiens; details: Homo sapiens, SK-PN-DW;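 also: growth inhibition measured with a viability assay on these cells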
Description: SANGER: Inhibition of human SK-PN-DW cell growth in a cell viability assay.

SW684 = type: functional, cell-based, Homo sapiens; details: Homo sapiens, SW684; read-out: IC50;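 also: growth inhibition of human SW684 cells, measured by a cell viability assay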
Description: SANGER: Inhibition of human SW684 cell growth in a cell viability assay.

TE-1 = type: functional, cell-based, Homo sapiens; details: Homo sapiens, TE-1
Description: SANGER: Inhibition of human TE-1 cell growth in a cell viability assay.

697 = type: functional, cell-based, Homo sapiens; details: Homo sapiens
Description: SANGER: Inhibition of human 697 cell growth in a cell viability assay.

A704 = type: functional, cell-based; details: Homo sapiens;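 also: growth inhibition of human A704 cells, read out with a cell viability assay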
Description: SANGER: Inhibition of human A704 cell growth in a cell viability assay.

ATN-1 = type: functional, cell-based, Homo sapiens; details: Homo sapiens, ATN-1;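 also: growth inhibition of human ATN-1 cells, read out with a cell viability assay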
Description: SANGER: Inhibition of human ATN-1 cell growth in a cell viability assay.

BB49-HNC = type: functional, cell-based, Homo sapiens; details: Homo sapiens, BB49-HNC;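 also: cell viability assay read-out, reported as inhibition of BB49-HNC cell growth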
Description: SANGER: Inhibition of human BB49-HNC cell growth in a cell viability assay.

TE-12 = type: functional, cell-based, Homo sapiens; details: Homo sapiens, TE-12;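 also: growth inhibition of TE-12 cells, read out by a cell viability assay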
Description: SANGER: Inhibition of human TE-12 cell growth in a cell viability assay.

TE-6 = type: functional, cell-based, Homo sapiens; details: Homo sapiens, TE-6;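 also: growth inhibition of TE-6 cells, read out with a cell viability assay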
Description: SANGER: Inhibition of human TE-6 cell growth in a cell viability assay.

TK-10 = type: functional, cell-based, Homo sapiens; details: Homo sapiens, TK-10;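 also: growth inhibition of TK-10 cells, read out in a cell viability assay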
Description: SANGER: Inhibition of human TK10 cell growth in a cell viability assay.

CGTH-W-1 = type: functional, cell-based, Homo sapiens; details: Homo sapiens, CGTH-W-1;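 also: growth inhibition of human CGTH-W-1 cells measured by cell viability assay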
Description: SANGER: Inhibition of human CGTH-W-1 cell growth in a cell viability assay.

NCI-H1299 = type: functional, cell-based; details: Homo sapiens;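 also: growth inhibition of human NCI-H1299 cells, read out by a cell viability assay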
Description: SANGER: Inhibition of human NCI-H1299 cell growth in a cell viability assay.

Cc1cc(N2CCOCC2)cc2[nH]c(-c3c(NC[C@@H](O)c4cccc(Cl)c4)cc[nH]c3=O)nc12
pIC50 (COLO-829): < 5.29
pIC50 (D-263MG): < 5.29
pIC50 (DU-4475): < 5.29
pIC50 (ES5): < 5.29
pIC50 (ES6): 6.37
pIC50 (ES7): < 5.29
pIC50 (EW-3): 5.32
pIC50 (GOTO): < 5.29
pIC50 (HCC2218): < 5.29
pIC50 (HEL): 5.72
pIC50 (IST-MES1): 5.95
pIC50 (K562): < 5.29
pIC50 (KS-1): 6.99
pIC50 (L-363): 6.48
pIC50 (L-428): < 5.29
pIC50 (LS-1034): 6.12
pIC50 (LU-139): < 5.29
pIC50 (MFM-223): < 5.29
pIC50 (MOLT-4): 5.34
pIC50 (MPP-89): 5.46
pIC50 (MV4-11): 6.69
pIC50 (Mo): < 5.29
pIC50 (NB10): < 5.29
pIC50 (NB13): < 5.29
pIC50 (NB69): 6.53
pIC50 (NCI-H1304): < 5.29
pIC50 (NCI-H1648): 6.72
pIC50 (NCI-H1770): < 5.29
pIC50 (NCI-H1838): < 5.29
pIC50 (NCI-H720): < 5.29
pIC50 (NH-12): < 5.29
pIC50 (NOS-1): 7.13
pIC50 (OS-RC-2): 5.84
pIC50 (SF-126): 5.61
pIC50 (SF-539): < 5.29
pIC50 (SK-LMS-1): 5.32
pIC50 (SK-MEL-2): < 5.29
pIC50 (SK-NEP-1): < 5.29
pIC50 (SK-PN-DW): 5.46
pIC50 (SW684): < 5.29
pIC50 (TE-1): 6.12
pIC50 697: 5.95
pIC50 (A704): 5.98
pIC50 (ATN-1): 6.60
pIC50 (BB49-HNC): < 5.29
pIC50 (TE-12): 6.75
pIC50 (TE-6): < 5.29
pIC50 (TK-10): 5.65
pIC50 (CGTH-W-1): < 5.29

CC(C)C[C@H](NC(=O)[C@H](Cc1ccccc1)NC(=O)c1cnccn1)B(O)O [BORTEZOMIB]
pIC50 (COLO-829): 9.21
pIC50 (D-263MG): 9.09
pIC50 (DU-4475): 8.87
pIC50 (ES5): 7.98
pIC50 (ES6): > 10.11
pIC50 (ES7): 9.12
pIC50 (EW-3): < 7.70
pIC50 (GOTO): 7.77
pIC50 (HCC2218): 7.71
pIC50 (HEL): 8.79
pIC50 (IST-MES1): < 7.70
pIC50 (K562): 8.39
pIC50 (KS-1): 9.47
pIC50 (L-363): 8.11
pIC50 (L-428): < 7.70
pIC50 (LS-1034): < 7.70
pIC50 (LU-139): 8.29
pIC50 (MFM-223): 7.75
pIC50 (MOLT-4): 8.67
pIC50 (MPP-89): 8.72
pIC50 (MV4-11): 8.74
pIC50 (Mo): 8.56
pIC50 (NB10): 8.63
pIC50 (NB13): 8.70
pIC50 (NB69): 8.61
pIC50 (NCI-H1299): < 7.70
pIC50 (NCI-H1304): < 7.70
pIC50 (NCI-H1648): 8.38
pIC50 (NCI-H1770): < 7.70
pIC50 (NCI-H1838): < 7.70
pIC50 (NCI-H720): < 7.70
pIC50 (NH-12): < 7.70
pIC50 (NOS-1): 8.68
pIC50 (OS-RC-2): 9.36
pIC50 (SF-126): 9.15
pIC50 (SF-539): < 7.70
pIC50 (SK-LMS-1): 9.07
pIC50 (SK-MEL-2): < 7.70
pIC50 (SK-NEP-1): 8.05
pIC50 (SK-PN-DW): 8.50
pIC50 (SW684): 9.09
pIC50 (TE-1): 8.99
pIC50 697: 8.70
pIC50 (ATN-1): 8.05
pIC50 (BB49-HNC): 9.19
pIC50 (TE-12): 8.37
pIC50 (TE-6): < 7.70
pIC50 (TK-10): 9.17
pIC50 (CGTH-W-1): 8.51
